Test results published in patent publication US6479435B1, “Diaryl ethers and processes for their preparation and herbicidal and desiccant compositions containing them” (ISK Americas Incorporated, priority 1997, dated 2002).

How the values were obtained:
Assay type in all cases: in vivo
[1] = system: green foxtail (Setaria viridis, SETVI); assay: Pre-emerge greenhouse herbicide test, phytotoxicity rating; settings: Setaria viridis, pre-emergence, 336 h, 14 days after application, rating scale 0-100; for pest or weed control at 125 g/ha: Rate 125 g al/ha; for pest or weed control at 500 g/ha: Rate 500 g al/ha
Method in brief: (§1)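 Visual 0–100 injury rating (100 = all plants dead) taken 14 days after treatment. Rates of 125–1000 g ai/ha in acetone, 187 l/ha, were sprayed onto soil one day post-sowing; pots were surface-watered to incorporate, then bottom-watered.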

[2] = system: sicklepod (Cassia obtusifolia, CASOB); assay: as above; settings: Senna obtusifolia, pre-emergence, 336 h, 14 days after application, rating scale 0-100; for pest or weed control at 125 g/ha: Rate 125 g al/ha; for pest or weed control at 500 g/ha: Rate 500 g al/ha
Method in brief: as §1

[3] = system: ivyleaf morningglory (Ipomoea hederacea, IPOHE); assay: as above; settings: Ipomoea, pre-emergence, 336 h, 14 days after application, rating scale 0-100; for pest or weed control at 125 g/ha: Rate 125 g al/ha; for pest or weed control at 500 g/ha: Rate 500 g al/ha
Method in brief: as §1

[4] = system: Johnsongrass (Sorghum halepense, SORHA); assay: as above; settings: Sorghum halepense, pre-emergence, 336 h, 14 days after application, rating scale 0-100; for pest or weed control at 125 g/ha: Rate 125 g al/ha; for pest or weed control at 500 g/ha: Rate 500 g al/ha
Method in brief: as §1

[5] = system: redroot pigweed (Amaranthus retroflexus, AMARE); assay: as above; settings: Amaranthus retroflexus, pre-emergence, 336 h, 14 days after application, rating scale 0-100; for pest or weed control at 125 g/ha: Rate 125 g al/ha; for pest or weed control at 500 g/ha: Rate 500 g al/ha
Method in brief: as §1

[6] = system: barnyardgrass (Echinochloa crusgalli, ECHCG); assay: as above; settings: Echinochloa crus-galli, pre-emergence, 336 h, 14 days after application, rating scale 0-100; for pest or weed control at 125 g/ha: Rate 125 g al/ha; for pest or weed control at 500 g/ha: Rate 500 g al/ha
Method in brief: as §1

[7] = system: large crabgrass (Digitaria sanguinalis, DIGSA); assay: Post-emerge greenhouse herbicide test, phytotoxicity rating; settings: Digitaria sanguinalis, post-emergence, 336 h, 14 days after application, scale 0-100; for pest or weed control at 63 g/ha: rate 63 g ai/ha; for pest or weed control at 500 g/ha: rate 500 g ai/ha
Method in brief: (§2)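 Scores use a 0 (no damage) to 100 (complete kill) scale, taken 14 days after a foliar spray. Acetone solutions with 0.25% v/v non-ionic surfactant were applied by track sprayer at 187 l/ha and 63-1000 g ai/ha to bottom-watered 2-3 leaf plants.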

[8] = system: green foxtail (Setaria viridis, SETVI); assay: as above; settings: Setaria viridis, post-emergence, 336 h, 14 days after application, scale 0-100; for pest or weed control at 63 g/ha: rate 63 g ai/ha; for pest or weed control at 500 g/ha: rate 500 g ai/ha
Method in brief: as §2

[9] = system: sicklepod (Cassia obtusifolia, CASOB); assay: as above; settings: Senna obtusifolia, post-emergence, 336 h, 14 days after application, scale 0-100; for pest or weed control at 63 g/ha: rate 63 g ai/ha; for pest or weed control at 500 g/ha: rate 500 g ai/ha
Method in brief: as §2

[10] = system: ivyleaf morningglory (Ipomoea hederacea, IPOHE); assay: as above; settings: Ipomoea, post-emergence, 336 h, 14 days after application, scale 0-100; for pest or weed control at 63 g/ha: rate 63 g ai/ha; for pest or weed control at 500 g/ha: rate 500 g ai/ha
Method in brief: as §2

[11] = system: Johnsongrass (Sorghum halepense, SORHA); assay: as above; settings: Sorghum halepense, post-emergence, 336 h, 14 days after application, scale 0-100; for pest or weed control at 63 g/ha: rate 63 g ai/ha; for pest or weed control at 500 g/ha: rate 500 g ai/ha
Method in brief: as §2

[12] = system: lambsquarters (Chenopodium album, CHEAL); assay: as above; settings: Chenopodium album, post-emergence, 336 h, 14 days after application, scale 0-100; for pest or weed control at 63 g/ha: rate 63 g ai/ha; for pest or weed control at 500 g/ha: rate 500 g ai/ha
Method in brief: as §2

[13] = system: redroot pigweed (Amaranthus retroflexus, AMARE); assay: as above; settings: Amaranthus retroflexus, post-emergence, 336 h, 14 days after application, scale 0-100; for pest or weed control at 63 g/ha: rate 63 g ai/ha; for pest or weed control at 500 g/ha: rate 500 g ai/ha
Method in brief: as §2

[14] = system: barnyardgrass (Echinochloa crusgalli, ECHCG); assay: as above; settings: Echinochloa crus-galli, post-emergence, 336 h, 14 days after application, scale 0-100; for pest or weed control at 63 g/ha: rate 63 g ai/ha; for pest or weed control at 500 g/ha: rate 500 g ai/ha
Method in brief: as §2

[15] = system: velvetleaf (Abutilon theophrasti, ABUTH); assay: as above; settings: Abutilon theophrasti, post-emergence, 336 h, 14 days after application, scale 0-100; for pest or weed control at 63 g/ha: rate 63 g ai/ha; for pest or weed control at 500 g/ha: rate 500 g ai/ha
Method in brief: as §2

Row | SMILES | pest or weed control at 125 g/ha [1] | pest or weed control at 500 g/ha [1] | pest or weed control at 125 g/ha [2] | pest or weed control at 500 g/ha [2] | pest or weed control at 125 g/ha [3] | pest or weed control at 500 g/ha [3] | pest or weed control at 125 g/ha [4] | pest or weed control at 500 g/ha [4] | pest or weed control at 125 g/ha [5] | pest or weed control at 500 g/ha [5] | pest or weed control at 125 g/ha [6] | pest or weed control at 500 g/ha [6] | pest or weed control at 63 g/ha [7] | pest or weed control at 500 g/ha [7] | pest or weed control at 63 g/ha [8] | pest or weed control at 500 g/ha [8] | pest or weed control at 63 g/ha [9] | pest or weed control at 500 g/ha [9] | pest or weed control at 63 g/ha [10] | pest or weed control at 500 g/ha [10] | other results
1 | O=c1n(-c2cc(Oc3ncccc3C(F)(F)F)c(Cl)cc2F)c(=S)n2n1CCCC2 [Compound 8-18, 2-[4-chloro-2-fluoro-5-(3-trifluoromethyl-2pyridyloxy)phenyl]hexahydro-3-thioxo-1H-[1,2,4]triazolo[1,2-a]pyridazin-1-one] | 95% | 100% | 20% | 40% | 20% | 45% | 40% | 100% | 100% | 100% | 40% | 80% | 0% | 10% | 40% | 70% | 70% | 100% | 100% | 100% | pest or weed control at 63 g/ha [11]: 50%; pest or weed control at 500 g/ha [11]: 90%; pest or weed control at 63 g/ha [12]: 100%; pest or weed control at 500 g/ha [12]: 100%; pest or weed control at 63 g/ha [13]: 100%; pest or weed control at 500 g/ha [13]: 100%; pest or weed control at 63 g/ha [14]: 70%; pest or weed control at 500 g/ha [14]: 70%; pest or weed control at 63 g/ha [15]: 100%; pest or weed control at 500 g/ha [15]: 100%
2 | N#Cc1cccnc1Oc1cc(-n2c(=O)cc(C(F)(F)F)n(N)c2=O)c(F)cc1Cl [Compound 9-9, 1-Amino-3-[4-chloro-2-fluoro-5-(3-cyano-2-pyridyloxy)phenyl]-6-trifluoromethyl-1,2,3,4-tetrahydropyrimidine-2,4-dione] | 100% | 100% | 100% | 100% | 100% | 100% | 100% | 100% | 100% | 100% | 100% | 100% | 10% | 90% | 20% | 90% | 90% | 100% | 90% | 100% | pest or weed control at 63 g/ha [11]: 40%; pest or weed control at 500 g/ha [11]: 100%; pest or weed control at 63 g/ha [12]: 90%; pest or weed control at 500 g/ha [12]: 100%; pest or weed control at 63 g/ha [13]: 100%; pest or weed control at 500 g/ha [13]: 100%; pest or weed control at 63 g/ha [14]: 10%; pest or weed control at 500 g/ha [14]: 100%; pest or weed control at 63 g/ha [15]: 100%; pest or weed control at 500 g/ha [15]: 100%
3 | Nn1c(C(F)(F)F)cc(=O)n(-c2cc(Oc3ccccc3)c(Cl)cc2F)c1=O [Compound 9-26, 1-Amino-3-[4-chloro-2-fluoro-5-phenoxyphenyl]-6-trifluoromethyl-1,2,3,4-tetrahydropyrimidine-2,4-dione] | 100% | 100% | 95% | 100% | 100% | 60% | 90% | 100% | 100% | 100% | 95% | 100% | 80% | 50% | 100% | 100% | 100% | 100% | 100% | 100% | pest or weed control at 63 g/ha [11]: 90%; pest or weed control at 500 g/ha [11]: 100%; pest or weed control at 63 g/ha [12]: 100%; pest or weed control at 500 g/ha [12]: 100%; pest or weed control at 63 g/ha [13]: 100%; pest or weed control at 500 g/ha [13]: 100%; pest or weed control at 63 g/ha [14]: 80%; pest or weed control at 500 g/ha [14]: 100%; pest or weed control at 63 g/ha [15]: 100%; pest or weed control at 500 g/ha [15]: 100%
4 | Nn1c(C(F)(F)F)cc(=O)n(-c2cc(Oc3ccc([N+](=O)[O-])cc3C(F)(F)F)c(Cl)cc2F)c1=O [Compound 9-22, 1-Amino-3-[4-chloro-2-fluoro-5-(4-nitro-2-trifluoromethylphenoxy)phenyl]-6-trifluoromethyl-1,2,3,4-tetrahydropyrimidine-2,4-dione] | 90% | 100% | 30% | 80% | 90% | 80% | 50% | 95% | 100% | 100% | 50% | 90% | 10% | 50% | 10% | 80% | 30% | 70% | 100% | 100% | pest or weed control at 63 g/ha [11]: 0%; pest or weed control at 500 g/ha [11]: 80%; pest or weed control at 63 g/ha [12]: 40%; pest or weed control at 500 g/ha [12]: 100%; pest or weed control at 63 g/ha [13]: 100%; pest or weed control at 500 g/ha [13]: 100%; pest or weed control at 63 g/ha [14]: 20%; pest or weed control at 500 g/ha [14]: 90%; pest or weed control at 63 g/ha [15]: 100%; pest or weed control at 500 g/ha [15]: 100%
